Source: US11596614B2, “Treatment of intrahepatic cholestatic diseases” (CymaBay Therapeutics, Inc., priority 2014, dated 2023)

Key:
[1] = system: subjects with mixed dyslipidemia; conditions: cited from earlier work
[2] = gradient-gel electrophoresis, cited from earlier work
[3] = biological target: T1, PPARa (Homo sapiens, UniProt Q07869); experiment: Specificity for PPARδ compared with PPARa; assay type: biochemical
T1 sequence (Q07869 1-468): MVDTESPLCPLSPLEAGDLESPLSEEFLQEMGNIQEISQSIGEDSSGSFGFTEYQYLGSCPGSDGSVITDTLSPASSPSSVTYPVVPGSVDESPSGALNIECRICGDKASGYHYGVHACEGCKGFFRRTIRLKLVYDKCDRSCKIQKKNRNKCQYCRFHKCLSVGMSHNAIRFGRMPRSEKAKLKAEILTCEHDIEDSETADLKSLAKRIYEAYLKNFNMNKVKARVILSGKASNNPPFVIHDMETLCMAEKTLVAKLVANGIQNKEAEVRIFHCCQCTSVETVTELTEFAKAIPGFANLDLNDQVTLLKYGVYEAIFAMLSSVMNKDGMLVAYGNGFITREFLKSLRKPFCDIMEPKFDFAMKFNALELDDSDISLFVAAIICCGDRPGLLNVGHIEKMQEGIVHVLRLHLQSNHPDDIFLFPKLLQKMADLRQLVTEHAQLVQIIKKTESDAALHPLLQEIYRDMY
Source text: It is specific (>600-fold and >2500-fold compared with PPARa and peroxisome proliferator-activated receptor-γ receptors). PPARδ activation stimulates fatty acid oxidation and utilization, improves plasma lipid and lipoprotein metabolism, glucose utilization, and mitochondrial respiration, and preserves stem cell homeostasis.

[4] = system: subjects with PBC; experiment: Example 1: trial in subjects with PBC on UDCA; assay type: in vivo, human; conditions: on treatment, 50 or 200 mg/day
Source text: The trial subjects were adult, male or female, with a diagnosis of PBC by at least two of the following three criteria: (a) a history of alkaline phosphatase (ALP) above the upper limit of normal (ULN) for at least six months, (b) positive anti-mitochondrial antibody titers> 1/40 on immunofluorescence or M2 positive by enzyme linked immunosorbent assay or positive PBC-specific antinuclear antibodies, and (c) documented liver biopsy result consistent with PBC, on a stable and recommended dose of UDCA for the past twelve months, and ALP≥1.67×ULN. Exclusion criteria included AST or ALT≥3×ULN, total bilirubin (TBIL)≥2×ULN, autoimmune hepatitis or a history of chronic viral hepatitis, PSC, the current use of fibrates or simvastatin, the use of colchicine, methotrexate, azathioprine, or systemic steroids in the previous two months, the use of an experimental treatment for PBC, and the use of an experimental or unapproved immunosuppressant. The primary study endpoint was decrease in ALP, and the secondary endpoint was the responder rate for subjects achieving ALP<1.67×ULN and total bilirubin within normal limit, and >15% decrease in ALP. […] According to the original statistical plan, changes in ALP were calculated using the last observation carried forward. […]

[5] = system: subjects with an intrahepatic cholestatic disease such as PBC; experiment: Example 2: treatment of adult subjects with an intrahepatic cholestatic disease such as PBC; assay type: in vivo, human; conditions: 5, 10, 25, or 50 mg/day orally
Procedure: Subjects are permitted their usual other medications, including UDCA. […] At each visit, after a 12-hour fast, blood is drawn and urine collected; and a standard metabolic panel, complete blood count, and standard urinalysis are performed. Blood is analyzed for TC, HDL-C, TG, VLDL-C, LDL-C, and apolipoprotein B, for liver function markers such as total and bone-specific alkaline phosphatases, for γ-glutamyl transpeptidase, and also for total and conjugated bilirubin. The subjects also maintain health diaries, which are reviewed at each visit.

[6] = Preclinical elimination study; assay type: in vivo
[7] = once daily oral, 8 weeks, seladelpar 50 or 100 mg, ATV 20 mg

CC(C)c1c(C(=O)Nc2ccccc2)c(-c2ccccc2)c(-c2ccc(F)cc2)n1CC[C@@H](O)C[C@@H](O)CC(=O)O [ATV, atorvastatin, reference compound]
decrease of large LDL particles ([1]; once daily oral, 8 weeks, ATV 20 mg): 30% | decrease of small/very small LDL particles [1, 7]: 25%

CCO[C@H](COc1ccc(C(F)(F)F)cc1)CSc1ccc(OCC(=O)O)c(C)c1 [Seladelpar, (R)-2-(4-((2-ethoxy-3-(4-(trifluoromethyl)phenoxy)propyl)thio)-2-methylphenoxy)acetic acid]
conversion of LDL particle size pattern B (predominant LDL particle size less than 25.75 nm) [2]: to pattern I or A | conversion of LDL particle size pattern I (predominant LDL particle size 25.75 nm to 26.34 nm) ([2]; pattern A = predominant LDL particle size greater than 26.34 nm): to pattern A | safety and tolerability ([1]; 50 or 100 mg once daily oral, 8 weeks): safe and generally well-tolerated | reduction of high-sensitivity C-reactive protein ([1]; compared to placebo, seladelpar 50 or 100 mg once daily oral alone and in combination with ATV 20 mg, 8 weeks, P<0.05): 43-72% | raise of HDL-C ([1]; compared to placebo, seladelpar 50 or 100 mg once daily oral alone and in combination with ATV 20 mg, 8 weeks): 1-12% | reduction of the percentage of subjects meeting the criteria for metabolic syndrome ([1]; mixed dyslipidemia): > 2 fold | decrease of small/very small LDL particles [1, 7]: 40-48% | increase of large LDL particles ([1]; once daily oral, 8 weeks, seladelpar 50 or 100 mg): 34-44% | specificity for PPARδ compared with PPARa [3]: > 600 fold | adverse events of pruritus [4]: no adverse events of pruritus were reported | improvement in disease (ALP and GGT) [5]: a decrease in ALP and GGT | distribution of drug in bile [6]: concentrated in bile
